Read-outs that look alike come from different tables or passages of the source.
How the values were obtained:
[1] = tested on: Gram-positive and Gram-negative bacteria; type: cell-based
Description: (§1) Escherichia coli strain (ATCC 25922), Staphylococcus aureus sp. strain (ATCC 25923), Pseudomonas aeruginosa Migula strain (ATCC 27853) and Acinetobacter sp. (BCRC number 14B0100) were used to test the antibacterial activity of the peptides. All bacteria were purchased from Food Industry Research and Development Institute (Hsinchu, Taiwan), and Acinetobacter sp. is multiresistant to Ampicillin, Cefazolin, Cefoxitin, Ceftazidime, Ceftriaxone, Ciprofloxacin, Penicillin, Tetracycline and Imipenem. Bacteria were cultured in sterilized MH (Müller−Hinton) broth at 200 rpm and 37 °C for 8 h. After 8 h of culture, the concentrations of the inoculums were determined by measuring absorbance of optical density at 600 nm (OD 600 = 1, equal to approximately 10^8 CFU/mL) with Ultrospec 2100 pro UV−Visible spectrophotometer (Biochrom Ltd., Cambridge, UK)).
(§2) The antibacterial activities were determined by the standard broth microdilution method of the National Committee for Clinical Laboratory Standards with the MH and LYM broth. The LYM broth contains 5.4 mM KCl, 5.6 mM Na2HPO4, 0.5 mM MgSO4, and 1.0 mM sodium citrate. In addition, 0.4 mg of ZnCl2, 2.0 mg of FeCl3·6H2O, 0.1 mg of CuSO4·5H2O, 0.1 mg of MnSO4·H2O, 0.1 mg of Na2B4O7·10H2O, 700 mg of amino acid mixtures without tryptophan (Clontech), and 20 mg of L-tryptophan were added per liter of medium. A vitamin mixture (100X, Sigma) and glucose at final concentration of 2% were also added. We made 1 µL peptide solutions (ranging from 3200 µg/mL to 100 µg/mL in serial dilution) and mixed with 99 µL inoculum (5 × 10^5 CFU/mL) in a polypropylene 96-well plate. We measured the turbidity at OD 600 nm by ELISA plate reader (Thermo Max, Molecular Devices, Sunnyvale, CA, USA). The absorbance of culture medium and inoculum suspension without peptides were used as the negative and positive control, respectively. The MIC value is the lowest concentration of peptide at which there is no obvious growth (equal or more than 90%). […] All peptides were tested in triplicate.

[2] = tested on: Gram-negative and Gram-positive bacteria; details: cited from earlier work
Description: Problems such as salt sensitivity, cost of synthesis, bioavailability, and stability have limited the therapeutic applications of antimicrobial peptides. Among these problems, salt sensitivity is directly related to the microbicidal mechanism of antimicrobial peptides. […] Similar problems have also been found with other antimicrobial peptides. || Recently, solution structures of S1 (Ac-KKWRKWLAKK-NH2) and S1-Nal-Nal (Ac-KKWRKWLAKKNal-Nal-NH2) in complex with LPS micelles have been reported. Both S1 and S1-Nal-Nal bound to LPS through the hydrophilic surface of their helices to the negatively charged region of LPS. S1-Nal-Nal further inserted deeper into the hydrophobic core of LPS micelles and created better hydrophobic interactions of its C-terminal β-naphthylalanine end-tags with the lipid A motif of LPS. The LPS-induced inflammation might then be prohibited. Moreover, a strategy was developed to increase salt resistance and L ... || To investigate the amphipathic helix–AGP–hydrophobic helix on the antimicrobial and neutralization activities of LPS, two peptides KR12 and RW6 were used for the N-terminal and C-terminal helices. […] Sequences of the designed peptides are listed in Table 1 and their helical wheel analyses ar ...

[3] = tested on: LPS (interaction between LPS and factor C); assay: Limulus amebocyte lysate (LAL) assay, LPS binding and neutralization; type: biochemical, Limulus Polyphemus; details: peptide 64 μg/mL; CSE 5 EU; absorbance 405 nm, 37 °C; triplicate
Protocol: The ability of binding and neutralizing LPS in vitro was measured by the LAL assay which is well-known as the most sensitive and specific method.
The abilities of designed peptides to bind and neutralize LPS were assessed using Limulus amebocyte lysate (LAL) assay (Cape Cod Inc., East Falmouth, MA, USA). LAL is an extract of amebocytes from the Atlantic horseshoe crab Limulus Polyphemus. LAL reacts with lipopolysaccharide (LPS) from bacteria. Different concentrations (5, 4, 2, 1, 0.5 EU) of control standard LPS (CSE) were mixed with LAL reagent water at the same volume of 25 μL to make a standard curve. The samples of 25 μL of different peptide concentrations (128, 64, 32, 16, 8 μg/mL) were mixed with 25 μL CSE (5 EU) in a 96-well plate. A portion of 50 μL of pyrochrome reagent was added to the wells immediately. The absorbance at 405 nm was measured by microplate reader at 37 °C every minute until 25 min.

[4] = tested on: Acinetobacter sp. (BCRC number 14B0100); type: cell-based; details: MH and LYM media
Description: as §1, §2

Q: With “Ac-KRIVQRIKDFLRAGPRRLVRI-NH2 [KR12AGPVR6]” as the substance, how does the MIC ([1]; 8 h) read?
A: 4~32 μg/mL

Q: With AKRHHGYKRKFH-NH2 [Peptide P-113] as the substance, how does the “Efficacy in high salt conditions” value ([2]; high salt conditions) read?
A: greatly reduced

Q: What does the source list for “Ac-KRIVQRIKDFLR-NH2 [KR12, reference compound]”?
A: Antimicrobial activities [2]: possess antimicrobial activities; LPS neutralization, inhibition in LAL assay [3]: less than 25%; Effectiveness against Acinetobacter sp. compared with the other three bacteria strains [4]: more effective

Q: With “Ac-KRIVQRIKDFLRAGPRRWWRW-NH2 [KR12AGPWR6]” as the substance, how does the MIC ([1]; 8 h) read?
A: 2~4 μg/mL

Q: For Ac-RRWWRW-NH2 [RW6], which “LPS neutralization, inhibition in LAL assay” value [3] is on record?
A: less than 25%

Q: And the MIC ([1]; 8 h)?
A: 8~32 μg/mL

Q: And the “MIC (antibacterial activity)” value ([1]; LYM broth with >100 mM NaCl added, triplicate)?
A: lost its antibacterial activity

Q: What about the MIC ([1]; MH broth, inoculum 5 × 10^5 CFU/mL, OD 600 nm, triplicate) of the same substance?
A: lost its antibacterial activity

Q: For WRWWRR [WR6], which Antimicrobial activities [2] is on record?
A: moderate antimicrobial activities

— PMC7554977, “Antimicrobial Peptides with Enhanced Salt Resistance and Antiendotoxin Properties” (International Journal of Molecular Sciences, 2020)
